Test results published in patent publication US6737383B1, “Herbicidal oxadiazolidines” (priority 1999, dated 2004).

Assays:
bedstraw = assay: Test B pre/postemergence bedstraw; type: in vivo, Galium aparine; details: Postemergence
Summary of the method: (§1)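 Test chemicals in a non-phytotoxic solvent mixture with surfactant were sprayed preemergence onto planted seeds and postemergence onto plants 2 to 18 cm tall (1- to 4-leaf stage). After twelve to sixteen days in a greenhouse, injury was visually rated against untreated controls from 0 (no effect) to 10 (complete control).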

blackgrass = assay: Test B pre/postemergence blackgrass; type: in vivo, Alopecurus myosuroides
Summary of the method: as §1

surinam grass = assay: Test B pre/postemergence surinam grass; type: in vivo, Brachiaria decumbens
Summary of the method: as §1

cocklebur = assay: Test B pre/postemergence cocklebur; type: in vivo, Xanthium strumarium
Summary of the method: as §1

corn = assay: Test B pre/postemergence corn; type: in vivo, Zea mays
Summary of the method: as §1

crabgrass = assay: Test B pre/postemergence crabgrass; type: in vivo, Digitaria sanguinalis
Summary of the method: as §1

giant foxtail = assay: Test B pre/postemergence giant foxtail; type: in vivo, Setaria faberii
Summary of the method: as §1

morningglory = assay: Test B pre/postemergence morningglory; type: in vivo, Ipomoea hederacea
Summary of the method: as §1

soybean = assay: Test B pre/postemergence soybean; type: in vivo, Glycine max
Summary of the method: as §1

velvetleaf = assay: Test B pre/postemergence velvetleaf; type: in vivo, Abutilon theophrasti
Summary of the method: as §1

wheat = assay: Test B pre/postemergence wheat; type: in vivo, Triticum aestivum
Summary of the method: as §1

wild oat = assay: Test B pre/postemergence wild oat; type: in vivo, Avena fatua
Summary of the method: as §1

purple nutsedge = assay: Test B pre/postemergence purple nutsedge; type: in vivo, Cyperus rotundus
Summary of the method: as §1

rice = assay: Test B flood test rice; type: in vivo, Oryza sativa
Summary of the method: (§2)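 Read-out is a visual response score from 0 (no effect) to 10 (complete control), assigned by comparison with untreated controls. Treatment was applied at the 2-leaf stage, and plants stayed in the greenhouse for twelve to sixteen days before scoring.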

smallflower flatsedge = assay: Test B flood test smallflower flatsedge; type: in vivo, Cyperus difformis
Summary of the method: as §2

duck salad = assay: Test B flood test duck salad; type: in vivo, Heteranthera limosa
Summary of the method: as §2

bamyardgrass = assay: Test B flood test barnyardgrass; type: in vivo, Echinochloa crus-galli
Summary of the method: as §2

[1] = Postemergence, Rate 125 g/ha, scale 0 to 10, 0 is no effect, 10 is complete control
[2] = Preemergence, Rate 62 g/ha, scale of 0 to 10 where 0 is no effect and 10 is complete control
[3] = Preemergence, Rate 250 g/ha, scale of 0 to 10 where 0 is no effect and 10 is complete control
[4] = Preemergence, Rate 500 g/ha, scale of 0 to 10 where 0 is no effect and 10 is complete control
[5] = Rate 62 g/ha, Postemergence, scale 0 to 10 (0 no effect, 10 complete control)
[6] = Rate 250 g/ha, Postemergence, scale of 0 to 10 where 0 is no effect and 10 is complete control
[7] = Rate 500 g/ha, Postemergence, scale 0 to 10, 0 no effect, 10 complete control
[8] = Rate 62 g/ha, headed Pre-emergence (flood test species), scale 0 to 10 (0 no effect, 10 complete control)
[9] = Rate 125 g/ha, Pre-emergence, flood test species, scale 0 to 10 where 0 is no effect and 10 is complete control
[10] = Rate 250 g/ha, Pre-emergence, flood-test species, scale 0 to 10, 0 is no effect, 10 is complete control
[11] = Rate 500 g/ha, Pre-emergence, flood test species, scale 0 to 10 (0 no effect, 10 complete control)

CC(C)N(C(=O)n1oc(=O)n(C2CC3CCC2C3)c1=O)c1ccc(F)cc1F (stereo not shown) [Compound 326]
Plant response rating, Bedstraw (bedstraw; Rate 125 g/ha, scale 0 to 10, 0 is no effect, 10 is complete control): 5
Plant response rating, Bedstraw (bedstraw; Rate 250 g/ha, scale of 0 to 10 where 0 is no effect and 10 is complete control): 7
Plant response rating, Blackgrass (blackgrass; [1]): 0
Blackgrass plant response rating (blackgrass; [2]): 0
Blackgrass plant response rating (0 to 10 scale) (blackgrass; Preemergence, Rate 125 g/ha): 5
Blackgrass plant response rating (blackgrass; [3]): 7
Blackgrass plant response rating (blackgrass; [4]): 8
Blackgrass plant response rating (blackgrass; [5]): 0
Plant response rating, Blackgrass (blackgrass; [6]): 0
Plant response rating, Blackgrass (blackgrass; [7]): 1
Plant response rating, B. signalgrass (surinam grass; [1]): 0
B. signalgrass plant response rating (surinam grass; [2]): 0
B. signalgrass plant response rating (0 to 10 scale, 0 is no effect, 10 is complete control) (surinam grass; Preemergence, Rate 125 g/ha): 0
B. signalgrass plant response rating (surinam grass; [3]): 3
B. signalgrass plant response rating (surinam grass; [4]): 7
B. signalgrass plant response rating (surinam grass; [5]): 0
Plant response rating, B. signalgrass (surinam grass; [6]): 0
Plant response rating, B. signalgrass (surinam grass; [7]): 0
Plant response rating, Cocklebur (cocklebur; [1]): 0
Cocklebur plant response rating (cocklebur; [2]): 0
Cocklebur plant response rating (0 to 10 scale) (cocklebur; Preemergence, Rate 125 g/ha): 0
Cocklebur plant response rating (cocklebur; [3]): 0
Cocklebur plant response rating (cocklebur; [4]): 0
Cocklebur plant response rating (cocklebur; [5]): 0
Plant response rating, Cocklebur (cocklebur; [6]): 0
Plant response rating, Cocklebur (cocklebur; [7]): 2
Plant response rating, Corn (corn; [1]): 0
Corn plant response rating (corn; [2]): 0
Corn plant response rating (0 to 10 scale) (corn; Preemergence, Rate 125 g/ha): 0
Corn plant response rating (corn; [3]): 0
Corn plant response rating (corn; [4]): 2
Corn plant response rating (corn; [5]): 0
Plant response rating, Corn (corn; [6]): 0
Plant response rating, Corn (corn; [7]): 0
Plant response rating, Crabgrass (crabgrass; [1]): 0
Crabgrass plant response rating (crabgrass; [2]): 0
Crabgrass plant response rating (0 to 10 scale) (crabgrass; Preemergence, Rate 125 g/ha): 0
Crabgrass plant response rating (crabgrass; [3]): 3
Crabgrass plant response rating (crabgrass; [4]): 5
Crabgrass plant response rating (crabgrass; [5]): 0
Plant response rating, Crabgrass (crabgrass; [6]): 1
Plant response rating, Crabgrass (crabgrass; [7]): 3
Plant response rating, Giant foxtail (giant foxtail; [1]): 0
Giant foxtail plant response rating (giant foxtail; [2]): 0
Giant foxtail plant response rating (0 to 10 scale) (giant foxtail; Preemergence, Rate 125 g/ha): 2
Giant foxtail plant response rating (giant foxtail; [3]): 8
Giant foxtail plant response rating (giant foxtail; [4]): 9
Giant foxtail plant response rating (giant foxtail; [5]): 0
Plant response rating, Giant foxtail (giant foxtail; [6]): 0
Plant response rating, Giant foxtail (giant foxtail; [7]): 2
Plant response rating, Morningglory (morningglory; [1]): 7
Morningglory plant response rating (morningglory; [2]): 0
Morningglory plant response rating (0 to 10 scale) (morningglory; Preemergence, Rate 125 g/ha): 0
Morningglory plant response rating (morningglory; [3]): 0
Morningglory plant response rating (morningglory; [4]): 0
Morningglory plant response rating (morningglory; [5]): 5
Plant response rating, Morningglory (morningglory; [7]): 10
Plant response rating, Soybean (soybean; [1]): 5
Soybean plant response rating (soybean; [2]): 0
Soybean plant response rating (0 to 10 scale) (soybean; Preemergence, Rate 125 g/ha): 0
Soybean plant response rating (soybean; [3]): 0
Soybean plant response rating (soybean; [4]): 0
Soybean plant response rating (soybean; [5]): 3
Plant response rating, Soybean (soybean; [6]): 5
Plant response rating, Soybean (soybean; [7]): 6
Plant response rating, Velvetleaf (velvetleaf; [1]): 0
Velvetleaf plant response rating (velvetleaf; [2]): 0
Velvetleaf plant response rating (0 to 10 scale) (velvetleaf; Preemergence, Rate 125 g/ha): 0
Velvetleaf plant response rating (velvetleaf; [3]): 0
Velvetleaf plant response rating (velvetleaf; [4]): 0
Velvetleaf plant response rating (velvetleaf; [5]): 0
Plant response rating, Velvetleaf (velvetleaf; [6]): 2
Plant response rating, Velvetleaf (velvetleaf; [7]): 2
Plant response rating, Wheat (wheat; [1]): 0
Wheat plant response rating (wheat; [2]): 0
Wheat plant response rating (0 to 10 scale) (wheat; Preemergence, Rate 125 g/ha): 0
Wheat plant response rating (wheat; [3]): 0
Wheat plant response rating (wheat; [4]): 2
Wheat plant response rating (wheat; [5]): 0
Plant response rating, Wheat (wheat; [6]): 0
Plant response rating, Wheat (wheat; [7]): 0
Plant response rating, Wild oats (wild oat; [1]): 0
Wild oats plant response rating (wild oat; [2]): 0
Wild oats plant response rating (0 to 10 scale) (wild oat; Preemergence, Rate 125 g/ha): 1
Wild oats plant response rating (wild oat; [3]): 3
Wild oats plant response rating (wild oat; [4]): 3
Wild oats plant response rating (wild oat; [5]): 0
Plant response rating, Wild oats (wild oat; [6]): 0
Plant response rating, Wild oats (wild oat; [7]): 0
Plant response rating, Nutsedge (purple nutsedge; [1]): 0
Nutsedge plant response rating (purple nutsedge; [2]): 0
Nutsedge plant response rating (purple nutsedge; [3]): 0
Nutsedge plant response rating (purple nutsedge; [4]): 0
Nutsedge plant response rating (purple nutsedge; [5]): 0
Plant response rating, Nutsedge (purple nutsedge; [6]): 0
Plant response rating, Nutsedge (purple nutsedge; [7]): 0
Rice plant response rating (rice; [8]): 0
Rice plant response rating (rice; [9]): 0
Rice plant response rating (rice; [10]): 0
Rice plant response rating (rice; [11]): 0
S. Flatsedge plant response rating (smallflower flatsedge; [8]): 0
S. Flatsedge plant response rating (smallflower flatsedge; [9]): 0
S. Flatsedge plant response rating (smallflower flatsedge; [10]): 0
S. Flatsedge plant response rating (smallflower flatsedge; [11]): 0
Ducksalad plant response rating (duck salad; [8]): 0
Ducksalad plant response rating (duck salad; [9]): 0
Ducksalad plant response rating (duck salad; [10]): 0
Ducksalad plant response rating (duck salad; [11]): 0
Barnyardgrass plant response rating (bamyardgrass; [8]): 0
Barnyardgrass plant response rating (bamyardgrass; [9]): 0
Barnyardgrass plant response rating (bamyardgrass; [10]): 8
Barnyardgrass plant response rating (bamyardgrass; [11]): 9
